Values after ≈ are worked out from the molar mass of the structure shown. “Also recorded” adds a separate entry of the source.
Legend:
G. vaginalis = assay: planktonic MIC, standard MIC methodologies; assay type: cell-based, G. vaginalis ATCC #14018; conditions: Gardnerella vaginalis
Experimental: (§1) As a prelude to the biofilm experiments, the planktonic (i.e., free-floating vs. biofilm-associated) MIC values for boric acid and EDTA against both test organisms were established utilizing standard MIC methodologies. In contrast to C. albicans, the planktonic MIC values for boric acid and EDTA against G. vaginalis had not previously been reported.
(§2) In preparation of the biofilm experiments relating to the invention, overnight cultures of C. albicans and G. vaginalis were prepared by adding 1 mL frozen stock to 9 mL growth media (either G. vaginalis ATCC #14018 in 50% BHI broth+1% starch, or C. albicans ATCC #96113 in 50% SD broth+1% sucrose) and incubated for 24 hours at 37° C., C. albicans was grown under atmospheric conditions while G. vaginalis was grown with the addition of 5% CO2.
(§3) Next, the 24 biofilm-covered coupons were aseptically removed from the CDC reactor and placed in a 24-well plate, with each well containing 2 mL of test solution. The test solutions were run in triplicate and included varied concentrations of boric acid (BA) and EDTA or a combination thereof. […] Fluconazole at a concentration of 8 μg/mL was selected as the treatment control for C. albicans.

C. albicans = assay: planktonic MIC, standard MIC methodologies; conditions: Candida albicans, read-out: planktonic MIC
recurrent BV = test system: recurrent BV
Experimental: A retrospective case review was conducted of the use of boric acid in a series of patients with recurrent BV. Boric acid was employed as an antimicrobial agent as part of a 6-month sequential treatment protocol.
With the exception of boric acid, all of the other antimicrobials used were FDA approved for BV. The 6-month protocol was as follows: • 1. Induction: oral metronidazole or tinidazole twice daily for 7-10 days • 2. Boric acid treatment: 600-mg gelatin capsule inserted vaginally daily for 21 days • 3.

[1] = test system: clinical isolates of C. albicans as well as non-albicans species; conditions: literature (Shubair 1990; Prutting 1998); cited from earlier work
[2] = test system: common bacterial pathogens; conditions: literature (Meers 1990); cited from earlier work
[3] = including vaginal secretions and tissues; oral dosing, maximum daily dose 400 mg; cited from earlier work
G. vaginalis isolates = conditions: conventional planktonic MIC testing; cited from earlier work
G. vaginalis biofilm = assay: biofilm disruption in CDC biofilm reactor; assay type: cell-based, G. vaginalis ATCC #14018; conditions: metronidazole 192 μg/mL, 24-hour treatment
Experimental: as §1, §2, §3

BV biofilm = conditions: oral 500 mg twice daily for 7 days, cited from earlier work

`O=C(O)CN(CCN(CC(=O)O)CC(=O)O)CC(=O)O` [EDTA, ethylene-diamine-tetra-acetic acid] gave an MIC (G. vaginalis) of 190 µg/mL and an MIC (C. albicans) of 780 µg/mL (≈ 2.67 mM).
For `OB(O)O` [boric acid], the “treatment failures during boric acid therapy” value (recurrent BV; 600-mg vaginal capsule daily for 21 days) was “none of the treatment failures occurred during boric acid therapy”, the patients remaining cured (recurrent BV; at 9 months (3 months after maintenance)) was “Sixty-seven” and the “patients clinically cured (asymptomatic and negative for Amsel's criteria)” value (recurrent BV; end of 6 months, nitroimidazole induction, boric acid 600 mg vaginally daily 21 days, metronidazole gel maintenance, 24/31) was 77%. The “secondary yeast infection or discontinuation because of adverse event or intolerance” value (recurrent BV; in vivo) was “none of the patients experienced a secondary yeast infection or discontinued”, the “median duration of remission” value (recurrent BV; retrospective case series) was 8.7 months and the “antifungal activity in vitro” value [1] was “weakly fungistatic”. For the same molecule, the MIC (G. vaginalis) was 3120 µg/mL, the MIC (C. albicans) was 1560 µg/mL (≈ 25.2 mM) and the “antibacterial activity in vitro” value [2] was “bacteriostatic activity”.
In the case of `OC(Cn1cncn1)(Cn1cncn1)c1ccc(F)cc1F` [fluconazole, Fluconazole], the “drug levels achieved in biologic fluids and tissues” value [3] is listed as 4.12-8.08 μg/mL.
In the case of `Cc1ncc([N+](=O)[O-])n1CCO` [metronidazole], the “susceptibility of G. vaginalis isolates” value (G. vaginalis isolates) is listed as “good susceptibility”, the MIC (G. vaginalis) is listed as 128 µg/mL and the “effect of active control on G. vaginalis biofilm” value (G. vaginalis biofilm) is listed as “little impact; also recorded: minimal impact”. The “vaginal biopsy result (fluorescent in situ hybridization)” value (BV biofilm; G. vaginalis and Atopobium) was “persistent accumulation of core pathogenic bacteria” and the “clinical response by standard clinical and microbiologic methods” value (BV biofilm; each time point) was “resolution of BV”.

From US8349368B2, “Compositions and methods for treating vaginal infections and pathogenic vaginal biofilms” (priority 2007, dated 2013)
